Test results from article PMC8983078 (Drug Discovery Today, 2022).
Counter-ions that a name gives are not always drawn. Like-named read-outs stand apart in the source and are kept apart here.

How the values were obtained:
[1] = cited from earlier work
[2] = biological target: T1, hERG channel (Homo sapiens, UniProt Q12809); conditions: cited from earlier work
[3] = system: phospholipidosis (PLD); conditions: read-out: PLD EC50; NPC qHTS in-house database; cited from earlier work
[4] = system: SARS-CoV-1; conditions: cited from earlier work
[5] = system: Middle East respiratory syndrome (MERS)-CoV; conditions: cited from earlier work
[6] = biological target: T1, hERG channel
[7] = system: COVID-19; conditions: patients hospitalized with COVID-19, observational; cited from earlier work
[8] = system: SARS-CoV-2; conditions: cited from earlier work; for SARS-CoV-2 CPE EC50: Vero E6 cells infected for 72 h, NPC qHTS in-house database
[9] = system: autophagy; conditions: in words; screening data; cited from earlier work
[10] = tier stated per drug in the text, based on hERG curve rank

T1 sequence (Q12809 whole entry): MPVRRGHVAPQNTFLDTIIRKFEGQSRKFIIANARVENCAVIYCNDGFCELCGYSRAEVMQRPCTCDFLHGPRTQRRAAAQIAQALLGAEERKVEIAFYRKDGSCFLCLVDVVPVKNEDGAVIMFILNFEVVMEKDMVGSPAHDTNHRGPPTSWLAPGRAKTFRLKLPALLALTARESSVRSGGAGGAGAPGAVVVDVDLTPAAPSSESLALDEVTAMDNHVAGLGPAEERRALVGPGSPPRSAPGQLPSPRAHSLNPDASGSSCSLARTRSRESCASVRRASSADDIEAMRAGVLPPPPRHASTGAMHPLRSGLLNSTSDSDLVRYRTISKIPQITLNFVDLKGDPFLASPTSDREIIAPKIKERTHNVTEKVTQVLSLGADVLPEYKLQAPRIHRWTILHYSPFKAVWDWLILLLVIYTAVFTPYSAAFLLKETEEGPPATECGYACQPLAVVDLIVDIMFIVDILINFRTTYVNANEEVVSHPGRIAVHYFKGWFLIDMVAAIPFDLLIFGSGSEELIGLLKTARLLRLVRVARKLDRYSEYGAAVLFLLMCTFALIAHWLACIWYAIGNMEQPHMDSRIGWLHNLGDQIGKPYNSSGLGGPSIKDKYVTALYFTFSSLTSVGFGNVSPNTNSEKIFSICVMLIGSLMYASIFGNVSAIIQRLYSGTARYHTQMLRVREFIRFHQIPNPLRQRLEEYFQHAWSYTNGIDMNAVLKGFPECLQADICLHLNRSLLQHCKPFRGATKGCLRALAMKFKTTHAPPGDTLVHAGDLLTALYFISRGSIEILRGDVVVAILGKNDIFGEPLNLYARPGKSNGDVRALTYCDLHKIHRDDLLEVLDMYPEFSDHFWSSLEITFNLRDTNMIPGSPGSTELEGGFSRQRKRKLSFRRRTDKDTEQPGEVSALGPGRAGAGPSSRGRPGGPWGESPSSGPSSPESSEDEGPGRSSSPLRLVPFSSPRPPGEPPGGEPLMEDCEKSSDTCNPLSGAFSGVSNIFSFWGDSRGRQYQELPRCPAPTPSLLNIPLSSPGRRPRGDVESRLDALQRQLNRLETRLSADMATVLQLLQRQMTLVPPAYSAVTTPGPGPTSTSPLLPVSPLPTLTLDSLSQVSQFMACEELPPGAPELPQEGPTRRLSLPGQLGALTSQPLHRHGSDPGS

For COc1ccc(CCN2CCC(Nc3nc4ccccc4n3Cc3ccc(F)cc3)CC2)cc1 [Astemizole], the TdP risks [1] is given as “known TdP risks” and the arrhythmias ([1]; in vivo) is given as “fatal arrythmias”.
For CC[C@H]1OC(=O)[C@H](C)[C@@H](O[C@H]2C[C@@](C)(OC)[C@@H](O)[C@H](C)O2)[C@H](C)[C@@H](O[C@@H]2O[C@H](C)C[C@H](N(C)C)[C@H]2O)[C@](C)(O)C[C@@H](C)CN(C)[C@H](C)[C@@H](O)[C@]1(C)O [Azithromycin], the “hERG IC50” value ([2]; NPC qHTS in-house database) is listed as “Inactive” and the hERG inhibition ([2]; in words, screening data) is listed as “no hERG inhibition”.
For CCN(CC)CCCC(C)Nc1ccnc2cc(Cl)ccc12 (stereo not drawn) [Chloroquine], the EC50 [3] is listed as 11 µM.
In the case of CN(C)CCCN1c2ccccc2Sc2ccc(Cl)cc21 [Chlorpromazine], the “viral replication of SARS-CoV-1” value [4] is given as “inhibit in vitro viral replication”, the EC50 [3] is given as 10 µM and the “viral replication of MERS-CoV” value [5] is given as “inhibit in vitro viral replication”. The hERG liability [6, 10] was “high (high (curve rank > 4.0))” and the TdP risks ([1]; in vivo) was “known TdP risks”.
For NC(N)=Nc1nc(CSCCC(N)=NS(N)(=O)=O)cs1 [Famotidine], the clinical outcomes [7] is given as “improved clinical outcomes” and the “SARS-CoV-2 CPE EC50” value [8] is given as “Inactive”.
In the case of NC(=O)c1nc(F)c[nH]c1=O [Favipiravir], the “SARS-CoV-2 CPE EC50” value [8] is listed as “Inactive”.
In the case of CCN(CCO)CCCC(C)Nc1ccnc2cc(Cl)ccc12 (stereo not drawn) [Hydroxychloroquine sulfate], the “SARS-CoV-2 CPE EC50” value [8] is given as “Inactive” and the “hERG IC50” value ([2]; NPC qHTS in-house database) is given as “Inactive”.
For CC[C@@H](C)[C@H]1O[C@]2(CC[C@@H]1C)C[C@@H]1C[C@@H](C/C=C(\C)[C@@H](O[C@H]3C[C@H](OC)[C@@H](O[C@H]4C[C@H](OC)[C@@H](O)[C@H](C)O4)[C@H](C)O3)[C@@H](C)/C=C/C=C3\CO[C@@H]4[C@H](O)C(C)=C[C@@H](C(=O)O1)[C@]34O)O2 [Ivermectin], the EC50 [3] is given as 17 µM, the hERG liability [6, 10] is given as “moderate” and the IC50 ([2]; read-out: hERG IC50, NPC qHTS in-house database) is given as 9.7 µM.
For O=C(Nc1ccc([N+](=O)[O-])cc1Cl)c1cc(Cl)ccc1O [Niclosamide], the EC50 [3] is listed as 1 µM, the “hERG IC50” value ([2]; NPC qHTS in-house database) is listed as “Inactive” and the “activity in the autophagy assay” value [9] is listed as “moderate activity”.
For CC(=O)Oc1ccccc1C(=O)Nc1ncc([N+](=O)[O-])s1 [Nitazoxanide], the “activity in the CPE assay” value ([8]; in words, screening data) is given as “moderate activity”, the “hERG IC50” value ([2]; NPC qHTS in-house database) is given as “Inactive” and the “activity in the autophagy assay” value [9] is given as “no activity”.
For O=C(CCCN1CCC(O)(c2ccc(Cl)cc2)CC1)c1ccc(F)cc1 [haloperidol], the hERG liability [6] was “high (key: low (curve rank < 1.0); medium (curve rank between 1.0 and 4.0); high (curve rank > 4.0))”.
For CN1CCCCC1CCN1c2ccccc2Sc2ccc([S+](C)[O-])cc21 (stereo not drawn) [mesoridazine], the hERG liability [6] is given as “high (key: low (curve rank < 1.0); medium (curve rank between 1.0 and 4.0); high (curve rank > 4.0))” and the TdP risks ([1]; in vivo) is given as “known TdP risks”.
